Legend:
[1] = in animal feeds, in 20 to 40 days; higher depending on the thermal treatment of feed; cited from earlier work
Vibrio campbellii = assay: MIC assay, positive control; assay type: cell-based; details: positive control of the MIC test
Procedure: It was tested whether the experimental products (i.e. comparative examples 1 and 2, and examples 1 to 3) could inactivate diverse shrimp or fish and shrimp bacterial pathogens when directly interacting under an in vitro setting.
Bacterial growth was evaluated by visual and optical density.

[2] = Stability test in an animal feed (GC/FID quantification of the active ingredient in fish feed over storage time); assay type: physicochemical
Source text: The animal feed used was a commercial fish feed having a 52 wt% of crude protein.
Two 200 g samples of the commercial feed were taken for the application of each of the mixtures A and B.
A sterile plastic bag was spread out on a laboratory tray, and 200 g of the commercial feed was deposited on it. With the help of a liquid diffuser bottle, by means of short pulsations, 3 g of the mixture A, previously diluted to 10 wt% in vegetable oil, was applied to the feed.
The bag was closed and shaken, and the feed additive mixture was spread by manual friction in order to distribute it homogeneously all over the feed. Then, the feed containing the mixture A was put in a plastic container. The same process was carried out with mixture B instead of mixture A.
Each of these feed samples (200 g) containing mixture A or mixture B were divided into two and put into sterile cans (100 g of feed in each) for the different thermal treatments at room temperature (RT) and freezer temperature (FT).
Thus, an analytical method by capillary gas chromatography (high separation efficiency) and flame ionization detection (high sensitivity) ([…]) was developed. An Accelerated Solvent Extractor (ASE) extraction was made on the experimental feed samples and residual fats were eliminated from the chromatographic column using backflush.
In a mortar, about 5 g of the experimental feed sample were exactly weighted. 3 g of Celite 545 were added and mixed. The mixture was put in an ASE extraction cell (22 ml) and the sample was extracted with an 80%/20% hexane/acetone mixture at 100 °C and 1500 psi with 5 successive cycles (heating time 5 min, flush 40%, purge 60s) using an ASE equipment.
After extraction, enough anhydrous sodium sulfate was added to the extracts to absorb remaining water and solid residues. All the liquid extract was collected in a 50 ml beaker. The sodium sulfate was cleaned from the extraction tubes with some ml of the 80% /20% hexane/acetone mixture and added to the beaker. It was made up with the 80% /20% hexane/acetone mixture and mixed thoroughly. In a 2 ml glass vial to the GC/FID about 1 ml of the extract was taken. When some precipitate appeared, it was centrifuged at 6000 rpm 5 min.
The same protocol shown above was performed with the experimental feed samples but adding previously 0.2 ml of the 10,000 mg/l standard to 5 g of feed in the ASE extraction cell.
The standards, the experimental feed sample extract and its corresponding spiked sample extract were injected in the GC/FID equipment, minimum by duplicate, using the chromatographic conditions given above. The quantity spiked to the feed sample was at least the same quantity expected in the feed sample. If the area of the spiked sample didn't double at least the area of the corresponding non spiked sample, a high concentration of standard was used to spike the sample.
Results were calculated by standard addition method, taking into account the weight of the feed samples extracted and the standard concentrations.

O=CC=Cc1ccccc1 [AC, cinnamaldehyde]
losses [1]: 30-50%

gentamycin
inhibition at the expected concentration (Vibrio campbellii): 4 mg/L

C(=C\C1OCCO1)/c1ccccc1 [EAAC, cinnamaldehyde ethylene glycol acetal]
Amount of active agent ([2]; feed containing AC and EAAC 50:50, FT, 7 days): 269 mg/kg
Amount of active agent ([2]; feed containing AC and EAAC 50:50, FT, 14 days): 220 mg/kg
Amount of active agent ([2]; feed containing AC and EAAC 50:50, FT, 21 days): 265 mg/kg
Amount of active agent ([2]; feed containing AC and EAAC 50:50, FT, 28 days): 238 mg/kg
Amount of active agent ([2]; feed containing AC and EAAC 50:50, FT, 35 days): 197 mg/kg
Amount of active agent ([2]; feed containing AC and EAAC 50:50, FT, 42 days): 224 mg/kg
Amount of active agent ([2]; feed containing AC and EAAC 50:50, RT, 7 days): 288 mg/kg
Amount of active agent ([2]; feed containing AC and EAAC 50:50, RT, 14 days): 236 mg/kg
Amount of active agent ([2]; feed containing AC and EAAC 50:50, RT, 21 days): 258 mg/kg
Amount of active agent ([2]; feed containing AC and EAAC 50:50, RT, 28 days): 237 mg/kg
Amount of active agent ([2]; feed containing AC and EAAC 50:50, RT, 35 days): 191 mg/kg
Amount of active agent ([2]; feed containing AC and EAAC 50:50, RT, 42 days): 229 mg/kg
Amount of active agent ([2]; feed containing a mixture of AC and EAAC, molar ratio 50:50, stored at freezer temperature (FT), 0 days): 264 mg/kg
Amount of active agent ([2]; feed containing a mixture of AC and EAAC, molar ratio 50:50, stored at room temperature (RT), 0 days): 264 mg/kg

Reference: patent publication EP3747280A1, “ANTIMICROBIAL COMBINATION FOR USE IN ANIMAL FEEDS” (Lucta, S.A., priority 2019, dated 2020)
